Source: ChEMBL document CHEMBL5212743, “Selectivity Literature for EUbOPEN Chemogenomics Library wave 3” (2023)
One block for each molecule: values may come before it.

Experiments:
[1] = biological target: T1, Tyrosine-protein kinase ABL1 (Homo sapiens, UniProt P00519); test: Selectivity interaction (KiNativ profiling (A375 live cells treatment assays)) EUB0000238b ABL1; conditions: at 1 µM
[2] = biological target: Tyrosine-protein kinase ABL2 (Homo sapiens) (UniProt P42684); test: Selectivity interaction (KiNativ profiling (A375 live cells treatment assays)) EUB0000238b ABL2; conditions: at 1 µM
Sequence of Tyrosine-protein kinase ABL2 (Homo sapiens) (P42684 whole entry): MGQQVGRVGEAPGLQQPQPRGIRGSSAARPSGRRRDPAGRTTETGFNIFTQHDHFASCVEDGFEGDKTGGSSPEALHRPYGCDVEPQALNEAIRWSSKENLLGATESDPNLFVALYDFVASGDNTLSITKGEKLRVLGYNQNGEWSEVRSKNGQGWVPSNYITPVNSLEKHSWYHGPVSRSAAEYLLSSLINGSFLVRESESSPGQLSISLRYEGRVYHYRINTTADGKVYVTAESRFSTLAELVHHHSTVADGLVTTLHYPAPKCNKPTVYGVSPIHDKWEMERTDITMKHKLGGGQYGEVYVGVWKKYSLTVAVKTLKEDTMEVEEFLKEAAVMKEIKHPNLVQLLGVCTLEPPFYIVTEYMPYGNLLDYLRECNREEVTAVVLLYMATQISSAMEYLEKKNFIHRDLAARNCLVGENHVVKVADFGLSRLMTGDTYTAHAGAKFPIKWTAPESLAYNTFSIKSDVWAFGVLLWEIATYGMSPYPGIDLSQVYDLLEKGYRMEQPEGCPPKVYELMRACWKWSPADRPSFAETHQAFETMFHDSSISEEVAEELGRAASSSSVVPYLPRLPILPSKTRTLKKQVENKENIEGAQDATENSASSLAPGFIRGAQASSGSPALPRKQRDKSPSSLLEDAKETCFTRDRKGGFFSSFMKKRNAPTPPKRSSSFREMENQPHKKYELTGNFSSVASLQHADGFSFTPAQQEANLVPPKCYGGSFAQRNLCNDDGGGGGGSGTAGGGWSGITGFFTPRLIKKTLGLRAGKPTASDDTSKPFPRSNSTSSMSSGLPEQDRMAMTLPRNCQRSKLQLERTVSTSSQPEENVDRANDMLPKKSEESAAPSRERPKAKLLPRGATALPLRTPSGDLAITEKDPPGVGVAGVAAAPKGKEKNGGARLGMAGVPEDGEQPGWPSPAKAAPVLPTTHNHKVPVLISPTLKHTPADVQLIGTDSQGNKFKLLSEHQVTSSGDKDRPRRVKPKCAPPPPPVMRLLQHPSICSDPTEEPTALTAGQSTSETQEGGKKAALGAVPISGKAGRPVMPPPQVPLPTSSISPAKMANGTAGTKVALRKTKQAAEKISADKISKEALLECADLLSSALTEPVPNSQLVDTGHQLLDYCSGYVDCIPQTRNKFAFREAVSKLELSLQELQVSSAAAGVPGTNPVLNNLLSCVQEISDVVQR

[3] = biological target: T1, Tyrosine-protein kinase ABL1; test: Selectivity interaction (KinomeScan (DiscoverX)) EUB0000744a ABL1; conditions: at 100 nM
[4] = biological target: Phosphatidylinositol 4,5-bisphosphate 3-kinase catalytic subunit alpha isoform (Homo sapiens, UniProt P42336); test: Selectivity interaction (KinomeScan (DiscoverX)) EUB0000744a PIK3CA; conditions: at 100 nM
Sequence of Phosphatidylinositol 4,5-bisphosphate 3-kinase catalytic subunit alpha isoform (P42336 whole entry, canonical isoform): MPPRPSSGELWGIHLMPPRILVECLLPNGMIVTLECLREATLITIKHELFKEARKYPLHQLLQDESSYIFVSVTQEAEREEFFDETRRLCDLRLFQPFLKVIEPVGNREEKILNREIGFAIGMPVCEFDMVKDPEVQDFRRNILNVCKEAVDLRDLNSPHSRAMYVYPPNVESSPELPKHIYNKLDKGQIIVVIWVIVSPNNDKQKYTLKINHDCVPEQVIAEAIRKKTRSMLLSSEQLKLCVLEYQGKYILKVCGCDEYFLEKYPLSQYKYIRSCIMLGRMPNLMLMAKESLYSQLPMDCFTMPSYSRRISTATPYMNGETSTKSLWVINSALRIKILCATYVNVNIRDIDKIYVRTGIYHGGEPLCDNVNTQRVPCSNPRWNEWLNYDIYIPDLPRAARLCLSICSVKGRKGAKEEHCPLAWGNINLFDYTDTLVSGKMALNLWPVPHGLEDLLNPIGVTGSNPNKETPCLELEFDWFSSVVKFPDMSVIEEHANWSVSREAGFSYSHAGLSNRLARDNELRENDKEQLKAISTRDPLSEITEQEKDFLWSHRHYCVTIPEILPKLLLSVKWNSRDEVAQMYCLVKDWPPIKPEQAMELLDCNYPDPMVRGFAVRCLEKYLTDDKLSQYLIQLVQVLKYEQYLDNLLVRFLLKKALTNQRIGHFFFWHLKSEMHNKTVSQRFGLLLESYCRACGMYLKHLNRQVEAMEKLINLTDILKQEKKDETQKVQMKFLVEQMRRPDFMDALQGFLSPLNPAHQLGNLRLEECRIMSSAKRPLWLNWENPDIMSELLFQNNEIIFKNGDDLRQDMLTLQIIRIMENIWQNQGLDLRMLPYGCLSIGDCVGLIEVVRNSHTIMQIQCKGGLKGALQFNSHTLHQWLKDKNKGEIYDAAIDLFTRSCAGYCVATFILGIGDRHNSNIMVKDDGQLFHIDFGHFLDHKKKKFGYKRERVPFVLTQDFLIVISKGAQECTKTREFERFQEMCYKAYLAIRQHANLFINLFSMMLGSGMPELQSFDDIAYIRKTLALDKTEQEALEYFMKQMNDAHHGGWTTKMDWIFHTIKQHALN

[5] = biological target: Calcium/calmodulin-dependent protein kinase kinase 1 (Homo sapiens) (UniProt Q8N5S9); test: Selectivity interaction (KinomeScan (DiscoverX)) EUB0000167b CAMKK1; conditions: at 1 µM
Sequence of Calcium/calmodulin-dependent protein kinase kinase 1 (Homo sapiens) (Q8N5S9 whole entry, looked up): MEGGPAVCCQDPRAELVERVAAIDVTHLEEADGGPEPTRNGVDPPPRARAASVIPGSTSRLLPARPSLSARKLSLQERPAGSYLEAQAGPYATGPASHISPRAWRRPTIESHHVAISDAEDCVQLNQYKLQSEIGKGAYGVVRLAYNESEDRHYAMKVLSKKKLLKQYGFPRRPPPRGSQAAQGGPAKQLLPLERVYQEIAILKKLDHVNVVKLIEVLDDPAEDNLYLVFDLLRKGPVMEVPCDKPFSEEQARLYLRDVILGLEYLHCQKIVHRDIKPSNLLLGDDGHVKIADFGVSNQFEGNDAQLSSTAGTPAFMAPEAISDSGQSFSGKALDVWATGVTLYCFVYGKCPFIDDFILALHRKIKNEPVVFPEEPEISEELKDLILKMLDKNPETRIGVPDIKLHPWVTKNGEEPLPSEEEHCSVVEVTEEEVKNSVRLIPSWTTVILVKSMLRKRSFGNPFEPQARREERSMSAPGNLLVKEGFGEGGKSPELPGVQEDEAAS

[6] = test system: Receptor-type tyrosine-protein kinase FLT3 (Homo sapiens), P36888 [K663Q]; test: Selectivity interaction (KinomeScan (DiscoverX)) EUB0000274bCl FLT3; conditions: at 1 µM
[7] = biological target: Ribosomal protein S6 kinase beta-1 (Homo sapiens) (UniProt P23443); test: Selectivity interaction (KinomeScan (DiscoverX)) EUB0000274bCl RPS6KB1; conditions: at 1 µM
Sequence of Ribosomal protein S6 kinase beta-1 (Homo sapiens) (P23443 whole entry, looked up): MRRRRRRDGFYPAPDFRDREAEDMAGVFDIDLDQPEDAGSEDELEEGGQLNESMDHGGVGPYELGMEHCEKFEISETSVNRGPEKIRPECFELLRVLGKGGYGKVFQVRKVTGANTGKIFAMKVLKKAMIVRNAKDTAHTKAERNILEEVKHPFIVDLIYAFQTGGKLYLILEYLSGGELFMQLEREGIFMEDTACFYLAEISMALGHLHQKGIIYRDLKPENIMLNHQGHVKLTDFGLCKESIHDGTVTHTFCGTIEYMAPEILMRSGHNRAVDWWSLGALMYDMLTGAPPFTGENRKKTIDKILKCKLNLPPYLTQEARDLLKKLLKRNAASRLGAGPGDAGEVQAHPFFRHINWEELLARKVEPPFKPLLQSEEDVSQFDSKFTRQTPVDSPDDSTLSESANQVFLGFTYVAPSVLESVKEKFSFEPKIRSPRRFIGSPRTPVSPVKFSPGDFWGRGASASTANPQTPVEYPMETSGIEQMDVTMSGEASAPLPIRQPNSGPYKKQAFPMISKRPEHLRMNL

[8] = biological target: Muscarinic acetylcholine receptor M3 (Homo sapiens) (UniProt P20309); test: Selectivity interaction (GPCR panel (PDSP screen)) EUB0000546a CHRM3; conditions: at 10 µM
[9] = biological target: T2, Gamma-aminobutyric acid receptor subunit alpha-1 (Homo sapiens) (UniProt P14867); test: Selectivity interaction (GPCR panel (PDSP screen)) EUB0000546a GABRA1; conditions: at 10 µM
T2 sequence (whole entry): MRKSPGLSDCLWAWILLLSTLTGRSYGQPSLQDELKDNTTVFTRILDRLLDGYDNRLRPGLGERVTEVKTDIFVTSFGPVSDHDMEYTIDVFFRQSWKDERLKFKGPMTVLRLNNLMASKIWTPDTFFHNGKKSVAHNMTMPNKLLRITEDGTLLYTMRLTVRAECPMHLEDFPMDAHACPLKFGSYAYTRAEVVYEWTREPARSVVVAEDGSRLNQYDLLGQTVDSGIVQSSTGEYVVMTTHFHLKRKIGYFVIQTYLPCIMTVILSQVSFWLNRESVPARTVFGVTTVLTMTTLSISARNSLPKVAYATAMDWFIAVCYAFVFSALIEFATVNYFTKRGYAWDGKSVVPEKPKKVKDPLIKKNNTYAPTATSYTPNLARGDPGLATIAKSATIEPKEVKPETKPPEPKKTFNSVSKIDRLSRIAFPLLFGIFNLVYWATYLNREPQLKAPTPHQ

[10] = biological target: Kappa-type opioid receptor (Homo sapiens, UniProt P41145); test: Selectivity interaction (GPCR panel (PDSP screen)) EUB0000344a OPRK1; conditions: at 10 µM
Sequence of Kappa-type opioid receptor (P41145 whole entry): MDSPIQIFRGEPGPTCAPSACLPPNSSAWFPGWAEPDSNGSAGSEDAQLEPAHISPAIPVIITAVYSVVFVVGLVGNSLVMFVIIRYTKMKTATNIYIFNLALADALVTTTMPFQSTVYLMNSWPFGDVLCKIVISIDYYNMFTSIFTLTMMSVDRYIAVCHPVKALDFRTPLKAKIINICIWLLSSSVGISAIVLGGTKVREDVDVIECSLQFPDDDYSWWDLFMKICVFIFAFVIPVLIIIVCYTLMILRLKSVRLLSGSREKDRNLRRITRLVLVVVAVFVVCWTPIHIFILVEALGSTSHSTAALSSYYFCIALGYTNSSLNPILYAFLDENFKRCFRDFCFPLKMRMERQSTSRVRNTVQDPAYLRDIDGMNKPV

[11] = test system: Receptor-type tyrosine-protein kinase FLT3 (Homo sapiens), P36888 [K663Q]; test: Selectivity interaction (KinomeScan (DiscoverX)) EUB0000344a FLT3; conditions: at 1 µM
[12] = biological target: Ribosomal protein S6 kinase beta-1 (Homo sapiens) (UniProt P23443); test: Selectivity interaction (KinomeScan (DiscoverX)) EUB0000344a RPS6KB1; conditions: at 1 µM

T1 sequence (P00519 whole entry): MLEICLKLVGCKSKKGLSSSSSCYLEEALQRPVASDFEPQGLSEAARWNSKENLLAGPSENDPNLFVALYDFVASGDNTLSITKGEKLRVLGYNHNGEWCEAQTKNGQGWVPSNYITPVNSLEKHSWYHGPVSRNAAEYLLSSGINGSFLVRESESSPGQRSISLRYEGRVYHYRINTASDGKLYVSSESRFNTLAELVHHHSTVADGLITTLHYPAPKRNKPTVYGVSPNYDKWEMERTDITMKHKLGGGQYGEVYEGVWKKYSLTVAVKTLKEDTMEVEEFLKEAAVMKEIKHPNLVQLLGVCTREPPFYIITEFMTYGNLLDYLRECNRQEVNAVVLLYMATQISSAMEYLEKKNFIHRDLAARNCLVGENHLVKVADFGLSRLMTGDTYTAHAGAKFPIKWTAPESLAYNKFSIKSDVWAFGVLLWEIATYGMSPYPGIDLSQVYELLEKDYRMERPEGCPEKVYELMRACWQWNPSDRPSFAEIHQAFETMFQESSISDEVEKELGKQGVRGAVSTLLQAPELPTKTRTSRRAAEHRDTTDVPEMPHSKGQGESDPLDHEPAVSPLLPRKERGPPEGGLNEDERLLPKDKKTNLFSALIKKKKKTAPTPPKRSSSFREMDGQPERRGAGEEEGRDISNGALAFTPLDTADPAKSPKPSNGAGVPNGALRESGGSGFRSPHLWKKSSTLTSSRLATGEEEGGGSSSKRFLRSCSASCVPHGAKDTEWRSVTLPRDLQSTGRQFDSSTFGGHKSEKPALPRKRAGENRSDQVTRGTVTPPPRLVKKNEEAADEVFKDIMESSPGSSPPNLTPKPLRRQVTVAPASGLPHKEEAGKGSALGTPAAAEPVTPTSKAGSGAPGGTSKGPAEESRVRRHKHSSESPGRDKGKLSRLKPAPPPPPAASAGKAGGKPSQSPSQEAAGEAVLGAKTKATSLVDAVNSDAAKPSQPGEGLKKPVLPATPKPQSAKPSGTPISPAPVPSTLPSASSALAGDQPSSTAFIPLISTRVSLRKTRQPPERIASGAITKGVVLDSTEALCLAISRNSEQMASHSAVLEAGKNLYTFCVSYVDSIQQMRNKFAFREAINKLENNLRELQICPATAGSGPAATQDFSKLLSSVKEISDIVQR

SMILES: CC(C)CC(=O)N1CCc2nc(-c3ccc(Br)cc3)nc(N(C)Cc3ccccc3)c2C1
% of control [3]: 53%
% of control [4]: 53%

SMILES: C[C@H](c1ccc(F)cc1)N(Cc1ccc(Cl)c(C(=O)O)c1)C(=O)c1cnc2ccccc2c1
% of inhibition [8]: 39%
% of inhibition [9]: 28%

SMILES: N#CC1(c2ccccn2)CCN(Cc2cc(C(=O)N3CCCC3)c(=O)n3ccccc23)CC1
% of inhibition [10]: 46.8%
% of control [11]: 30%
% of control [12]: 34%

Further lines, results first:

% of inhibition [1]: 49%
% of inhibition [2]: 49%
SMILES: CNc1cc(Oc2cc(C(=O)Nc3cc(N4CCN(C)CC4)cc(C(F)(F)F)c3)ccc2C)ncn1

% of control [5]: 12%
SMILES: Cc1cccc(-c2cnc3occ(-c4ccc(C(=O)O)c(C5CCCC5)c4)c3c2)c1

% of control [6]: 30%
% of control [7]: 34%
SMILES: O=C(O)c1cc(-c2ccc(C3CCNCC3)cc2)c2ccc(-c3ccc(C(F)(F)F)cc3)cc2c1
